Assay results from ChEMBL document CHEMBL1125572, “Adenosine receptors: pharmacology, structure-activity relationships, and therapeutic potential” (J Med Chem, 1992).
Values belong to the compound of their own block, whether it stands above or below them.

Experiments:
[1] = target: T1, Adenosine receptor A1 (Rattus norvegicus, UniProt P25099)
T1 sequence (P25099 whole entry): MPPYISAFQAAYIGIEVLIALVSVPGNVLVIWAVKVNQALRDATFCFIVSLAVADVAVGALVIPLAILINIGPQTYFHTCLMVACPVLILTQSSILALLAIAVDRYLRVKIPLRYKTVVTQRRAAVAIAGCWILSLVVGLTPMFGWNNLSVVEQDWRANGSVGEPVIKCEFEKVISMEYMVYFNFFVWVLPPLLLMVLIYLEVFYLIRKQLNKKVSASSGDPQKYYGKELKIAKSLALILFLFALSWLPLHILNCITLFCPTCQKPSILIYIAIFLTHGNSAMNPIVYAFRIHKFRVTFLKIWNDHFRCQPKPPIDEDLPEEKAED

[2] = system: Adenosine receptors; A1 & A2 (Rattus norvegicus); assay: Ratio of adenosine A2 to A1 receptor binding
[3] = target: Adenosine A2 receptor (Rattus norvegicus) (UniProt P29276+P30543); assay: Binding affinity for Adenosine A2 receptor using [3H]- NECA; assay type: protein assay
[4] = target: T1, Adenosine receptor A1; assay: Binding affinity for Adenosine A1 receptor using [3H]- CHA or [3H]- PIA
[5] = target: T2, Adenosine A2 receptor (Homo sapiens, UniProt P29275+P29274); assay: Binding affinity for adenosine A2 receptor using [125I]PAPA-APEC in bovine striatum; assay type: tissue-based; conditions: Bos taurus, target entry is the homologue from another species
[6] = target: Adenosine A2 receptor (Rattus norvegicus, UniProt P29276+P30543); assay: Binding affinity for adenosine A2 receptor using [3H]- NECA; assay type: protein assay
[7] = target: T2, Adenosine A2 receptor; assay: Binding affinity for adenosine A2 receptor using [3H]- NECA in bovine brain; conditions: Bos taurus; target entry is the homologue from another species
[8] = target: T3, Adenosine receptor A1 (Bos taurus, UniProt P28190); assay: Binding affinity for adenosine A1 receptor using [3H]- CHA or [3H]- PIA in bovine brain
T3 sequence (P28190 whole entry): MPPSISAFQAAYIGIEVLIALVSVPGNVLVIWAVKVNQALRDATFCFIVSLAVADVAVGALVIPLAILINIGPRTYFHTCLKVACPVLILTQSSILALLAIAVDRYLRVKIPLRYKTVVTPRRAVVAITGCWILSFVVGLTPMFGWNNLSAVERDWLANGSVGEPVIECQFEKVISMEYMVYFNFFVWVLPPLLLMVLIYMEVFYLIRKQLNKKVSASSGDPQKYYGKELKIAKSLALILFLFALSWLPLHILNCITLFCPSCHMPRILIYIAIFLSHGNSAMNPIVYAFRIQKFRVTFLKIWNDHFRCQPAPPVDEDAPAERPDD

[9] = target: T3, Adenosine receptor A1; assay: Binding affinity for adenosine A1 receptor using [3H]- CHA or [3H]- PIA in bovine brain cortical membranes; assay type: cell membranes
[10] = target: T1, Adenosine receptor A1; assay: Binding affinity for adenosine A1 receptor using [3H]- CHA or [3H]- PIA antagonism of adenylate cyclase inhibition in rat adipocytes; assay type: cell-based
[11] = target: T2, Adenosine A2 receptor; assay: Binding affinity for adenosine A2 receptor using [3H]- NECA antagonism of adenylate cyclase activation in human platelets

Ki [1]: 3100 nM
Compound: Oc1cccc(C2=CSC3=Nc4ccccc4CN23)c1

Ratio [2]: 700 | Ki [3]: 4.92 µM | Ki [4]: 7 nM
Compound: OCCCNc1ncnc2c1ncn2C1O[C@H](CO)[C@@H](O)[C@H]1O (stereo partly specified)

Ki [1]: 23 nM
Compound: Nc1nc(-c2ccccc2)nc2c1cnn2-c1ccccc1

Ki [1]: 22000 nM
Compound: C#CCn1c(=O)c2c(ncn2C)n(C)c1=O

Ki [4]: 2 nM
Compound: Nc1ccc(CCNc2ncnc3c2ncn3C2O[C@H](CO)[C@@H](O)[C@H]2O)cc1I (stereo partly specified)

Ki [1]: 280 nM | Ki [5]: 7.1 nM
Compound: CCNC(=O)[C@H]1OC(n2cnc3c(N)nc(NCCc4ccc(CCC(=O)NCC/N=C(\S)Nc5ccc(N=C=S)cc5)cc4)nc32)[C@H](O)[C@@H]1O (stereo partly specified)

Ki [1]: 240 nM | Ki [6]: 5.7 nM
Compound: CCNC(=O)[C@H]1O[C@@H](n2cnc3c(N)nc(NCCc4ccc(CCC(=O)NCCN)cc4)nc32)[C@H](O)[C@@H]1O

Ki [3]: 0.663 µM
Compound: OC[C@H]1O[C@@H](n2cnc3c(Nc4ccccc4)ncnc32)[C@H](O)[C@@H]1O

Ratio [2]: 38000 | Ki [3]: 8.4 µM | Ki [4]: 0.22 nM
Compound: CCCCCCCCCCCCCCCCCC(=O)NCCNC(=O)Cc1ccc(NC(=O)Cc2ccc(Nc3ncnc4c3ncn4C3O[C@H](CO)[C@@H](O)[C@H]3O)cc2)cc1 (stereo partly specified)

Ki [1]: 270 nM
Compound: Nc1nc2ccc(Cl)cc2n2c(-c3ccccc3)nnc12

Ki [4]: 0.7 nM
Compound: Nc1ccc(CNc2ncnc3c2ncn3C2O[C@H](CO)[C@@H](O)[C@H]2O)cc1I (stereo partly specified)

Ki [1]: 1500 nM
Compound: Nc1nc(OCCC2CCCCC2)nc2c1ncn2C1O[C@@H](CO)[C@H](O)[C@@H]1O (stereo partly specified)

Ki [7]: 6.1 µM | Ki [8]: 10 nM
Compound: Cn1cnc2c(NC3CC4CCC3C4)ncnc21 (stereo unspecified)

Compound: CCCn1c(=O)c2[nH]c(C3CCC(=O)C3)nc2n(CCC)c1=O (stereo unspecified)
Ki [1]: 10.5 nM

Ki [1]: 2700 nM
Compound: Nc1nc(NCCC2C=CCCC2)nc2c1ncn2C1O[C@H](CO)[C@@H](O)[C@H]1O (stereo partly specified)

Ki [9]: 0.1 nM
Compound: CCCn1c(=O)c2nc(-c3ccc(OCC(=O)NCCNC(=O)CCc4ccc(N)c(I)c4)cc3)[nH]c2n(CCC)c1=O

Ki [1]: 147 nM
Compound: CCCCC#Cc1nc(N)c2ncn([C@@H]3O[C@H](CO)[C@@H](O)[C@H]3O)c2n1

Ki [4]: 4.1 nM
Compound: OC[C@H]1O[C@@H](n2cnc3c(NCCc4ccccc4)ncnc32)[C@H](O)[C@@H]1O

Ki [1]: 0.23 nM
Compound: CCCn1c(=O)c2nc(C3CCCC3)[nH]c2n(CCc2ccc(N)c(I)c2)c1=O

Ki [1]: 48 nM
Compound: Cc1ccc(CCOc2nc(N)c3ncn(C4O[C@@H](CO)[C@H](O)[C@@H]4O)c3n2)cc1 (stereo partly specified)

Ki [1]: 4.7 nM
Compound: Cc1c(C)n([C@H](C)Cc2ccccc2)c2nc(-c3ccccc3)nc(N)c12

Ki [10]: 8 nM | Ki [11]: 20 nM
Compound: CCCn1c(=O)c2nc([C@H]3CC[C@H](CNC(C)=O)CC3)[nH]c2n(CCC)c1=O

Compound: Cn1c(=O)c2c(nc(C3CCCCC3)n2C)n(C)c1=O
Ki [11]: 0.19 nM

Ki [4]: 7.1 nM
Compound: O=C(Cc1ccc(NC(=O)Cc2ccc(Nc3ncnc4c3ncn4C3O[C@H](CO)[C@@H](O)[C@H]3O)cc2)cc1)NCC/N=C(/S)Nc1ccc2c(c1)C(=O)OC21c2ccc(O)cc2Oc2cc(O)ccc21 (stereo partly specified)

Ki [1]: 28 nM
Compound: FC(F)(F)c1nnc2c(NC3CCCC3)nc3ccc(Cl)cc3n12

Ki [4]: 0.94 nM
Compound: C[C@H](Cc1ccc(O)c(I)c1)Nc1ncnc2c1ncn2[C@@H]1O[C@H](CO)[C@@H](O)[C@H]1O

Ki [1]: 211 nM
Compound: CCCCCCC#Cc1nc(N)c2ncn([C@@H]3O[C@H](CO)[C@@H](O)[C@H]3O)c2n1

Ki [6]: 1 nM
Compound: CCNC(=O)[C@H]1OC(n2cnc3c(N)nc(NCCc4ccc(CCC(=O)NCCNC(=O)Cc5ccc(N)c(I)c5)cc4)nc32)[C@H](O)[C@@H]1O (stereo partly specified)
